Laboratory results reported in patent publication US9169241B2, “Quinolinyloxyphenylsulfonamides” (Max-Planck-Gesellschaft Zur Forderung der Wissenschaften …, priority 2009, dated 2015).
Read-outs that look alike come from different tables or passages of the source.

Key:
[1] = system: cells; assay: Boyden chamber migration assay (Table VI); type: cell-based; conditions: Homo sapiens, Hs-578T, 16 h, Hs578T cells; 16 h migration
Method: The Boyden chamber assay is based on a chamber of two medium-filled compartments separated by a microporous membrane of 8 μM (Cell culture insert 8.0 μM pore size, BD Biosciences, Bedford, Mass.). The boyden chamber migration assays were carried out according to the supplier's instructions. In general, 20000 cells are placed in the upper compartment with medium containing 0% FCS plus 0.1% BSA and are allowed to migrate 16 h through the pores of the membrane into the lower compartment, which is filled with cell culture medium containing 10% FCS as chemotactic agents. The cells remaining in the insert were removed with a cotton swab, and the cells on the bottom of the filter were fixed and counted. (Zhang Y X, et al. AXL is a potential target for therapeutic intervention in breast cancer progression. Cancer Res. 2008; 68:1905-15).

[2] = system: indicated cell line; assay: Wound healing migration assay (Table IV); type: cell-based; conditions: compounds at 12.5, 6.25, 3.125 μM, 48 h-72 h
Method: This method mimics cell migration during wound healing in vivo. The basic steps involve creating a “wound” in a cell monolayer, capturing the images at the beginning and at regular intervals during cell migration to close the wound, and comparing the images to quantify the migration rate of the cells. In detail, 150000 cell/24 well have been seeded and allowed to form a monolayer overnight. Subsequently a “wound” or “scratch” has been performed with a 1000 μl pipette tip. The STDV of wound size is normally below 10% at time point t0. The assay was stopped by fixation with 0.05% Crystal violet/20% methanol when control scratches were closed. The assay was terminated between 48 h and 72 h depending on the migration potential of the indicated cell line. The “wounds” were visualized with a Zeiss Axiovert S100 microscope (Carl Zeiss UK, Welwyn Garden City, UK). The tested compounds were used at 12.5 μM, 6.25, 3.125 μM and DMSO control. IC50 values have been calculated as 50% wound size in between t0 and t48 or t72.

[3] = system: tumor cell; assay: Matrigel outgrowth assay/branching assay (Table Va); type: cell-based
Method: The Matrigel outgrowth assay is based on the ability of tumor cell to penetrate a solid gel of extracellular matrix proteins mimicking the metastasis formation in vivo. While cells with low invasive potential appear as roundish cell or cell cluster, cells with high invasive potential penetrate the Matrigel and form polymorphic structures. In detail 65 μl of Matrigel matrix (Matrigel™ Matrix, BD Biosciences, Bedford, Mass., USA) with a concentration of 3 mg/ml have been polymerized in 96 well plates for 1 h at 37° C. Subsequently 5000 cell/well were seeded into each well containing cell culture medium and indicated compound with concentrations of 3.125 μM, 1.56 μM and 0.78 μM as well as DMSO control. After 48 h, 72 h and 96 h images of cell were taken on an inverted microscope using a 5× objective (Zeiss Axiovert S100 microscope Carl Zeiss UK, Welwyn Garden City, UK). Only compound concentrations were total branching inhibition was evident were accounted as positive. Method was used as previously described, with some modifications (Thompson E W, et al. Association of increased basement membrane invasiveness with absence of estrogen receptor and expression of vimentin in human breast cancer cell lines. J Cell Physiol 1992; 150:534-44).

[4] = system: C8161; assay: Apoptosis assay (Cellomics, nucleus condensation); type: cell-based; conditions: Homo sapiens, Table III, read-out: Apoptosis induction in C8161
Source text: (§1) The Cellomics BioApplication (Thermo Fischer Cellomics Products, Pittsburgh, Pa.) is an automated image analysis algorithm that provides detailed analysis of phenotypes related to apoptosis. As one of the most prominent characteristics of apoptotics cell a nucleus condensation takes place. This can be measured fluorescence signal intensity using a CCD camera on fully automated microscope system. The Cellomics system is able to quantify the fluorescence intensity per single nucleus and calculates the variation of signal intensity in each cell population. […] Additionally the number of detected cell decreases normally in apoptotic cell populations. In detail 5000 cell per 96 well were labeled with DNA intercalating dye (Hoechst 33342, Sigma, Steinheim, Germany) to visualize the nucleus in a fluorescence microscope under live conditions. The apoptosis assay was performed 24 h and 48 h after addition of compound at concentrations 12.5 μM, 6.25 μM, 3.125 μM, 1.56 μM, 0.78 μM, 0.39 μM as well as DMSO control for 48 h.

[5] = system: SF126; assay: Apoptosis assay (Cellomics, nucleus condensation); type: cell-based; conditions: Homo sapiens, SF-126, Table III, read-out: Apoptosis induction in SF126
Source text: as §1

[6] = system: Hs578T; assay: Apoptosis assay (Cellomics, nucleus condensation); type: cell-based; conditions: Homo sapiens, Hs-578T, Table III, read-out: Apoptosis induction in Hs578T
Source text: as §1

[7] = system: U138; assay: Apoptosis assay (Cellomics, nucleus condensation); type: cell-based; conditions: Table III, read-out: Apoptosis induction in U138
Source text: as §1

[8] = system: SF763; assay: Apoptosis assay (Cellomics, nucleus condensation); type: cell-based; conditions: Table III, read-out: Apoptosis induction in SF763
Source text: as §1

[9] = system: viable cells in culture; assay: Cell viability assay at 10 μM (CellTiter-Glo, Table VII); type: cell-based; conditions: compound 10 μM, 72 h;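 also: graded A 0-20%; B 21-40%; C 41-60%; D over 60% viable cells relative to DMSO control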
Method: The CellTiter-Glo® Luminescent Cell Viability Assay (Promega Corporation. Madison, Wis., USA) is method a determining the number of viable cells in culture based on quantification of the ATP being present which is an indicator of metabolically active cells was used according to manufacturers protocol. In detail the assay was performed in a 96 well format were 1000 cells/well were incubated with compound at concentration 10 μM as well as DMSO control for 72 h in 100 μl cell culture medium. Percentage of inhibition was calculated compared to ATP amount of DMSO control.

[10] = system: Hs578T; assay: Matrigel outgrowth assay/branching assay; type: cell-based; conditions: Homo sapiens, Hs-578T; HS578T cell line; Table Ib; read-out: Total branching inhibition in Matrigel HS578T
How it was run: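 Step one: Matrigel (3 mg/ml) is set for 1 h at 37° C. Step two: 5000 cells per well go on in medium with compound (0.78–3.125 μM) or DMSO. Step three: images at 48, 72 and 96 h are scored for complete loss of branching.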

[11] = Homo sapiens, C8161 cells, read-out: IC50 Wound healing Assay C8161
[12] = SF763 cells, read-out: IC50 Wound healing Assay SF763
[13] = Homo sapiens, C8161 cells, read-out: Total branching inhibition in Matrigel C8161
[14] = Homo sapiens, Hs-578T, Hs578T cells, read-out: Total branching inhibition in Matrigel Hs578T
[15] = U118 cells, read-out: Total branching inhibition in Matrigel U118
[16] = U138 cells, read-out: Total branching inhibition in Matrigel U138
[17] = Homo sapiens, HCT-116, HCT116 def, read-out: percentage (%) of viable cells HCT 116def
[18] = Homo sapiens, HCT-116, HCT116 wt, read-out: percentage (%) of viable cells HCT 116wt
[19] = Homo sapiens, HT-29, HT29, read-out: percentage (%) of viable cells HT29
[20] = Homo sapiens, NCI-H358, H358, read-out: percentage (%) of viable cells H358
[21] = Homo sapiens, NCI-H1650, H1650, read-out: percentage (%) of viable cells H1650
[22] = Homo sapiens, NCI-H1666, H1666, read-out: percentage (%) of viable cells H1666
[23] = Homo sapiens, NCI-H1975, H1975, read-out: percentage (%) of viable cells H1975
[24] = Homo sapiens, NCI-H1993, H1993, read-out: percentage (%) of viable cells H1993
[25] = Homo sapiens, A549, read-out: percentage (%) of viable cells A549
[26] = Homo sapiens, HCC827, read-out: percentage (%) of viable cells HCC827
[27] = Homo sapiens, SW480, read-out: percentage (%) of viable cells SW480
[28] = RKO, read-out: percentage (%) of viable cells RKO

COc1cc2c(Oc3ccc(NS(=O)(=O)c4ccc(F)cc4F)cc3F)ccnc2cc1OCCCN1CCN(C)CC1 [Example 16, 2,4-Difluoro-N-(3-fluoro-4-{6-methoxy-7-[3-(4-methyl-piperazin-1-yl)-propoxy]-quinolin-4-yloxy}-phenyl)-benzenesulfonamide]
melting point: 99 to 102 °C | IC50 [1]: ≤ 5 µM | IC50 [2, 11]: 12.5 to 50 µM | IC50 [2, 12]: 12.5 to 50 µM | IC50 [3, 13]: ≤ 5 µM | IC50 [3, 14]: 5 to 50 µM | IC50 [3, 15]: 5 to 50 µM | IC50 [3, 16]: ≤ 5 µM | IC50 [4]: ≤ 12.5 µM | IC50 [5]: ≤ 12.5 µM | IC50 [6]: ≤ 12.5 µM | IC50 [7]: ≤ 12.5 µM | IC50 [8]: ≤ 12.5 µM | viability at 10 µM [9, 17]: 41 to 60% | viability at 10 µM [9, 18]: 41 to 60% | viability at 10 µM [9, 19]: 21 to 40% | viability at 10 µM [9, 20]: 0 to 20% | viability at 10 µM [9, 21]: 21 to 40% | viability at 10 µM [9, 22]: 41 to 60% | viability at 10 µM [9, 23]: 0 to 20% | viability at 10 µM [9, 24]: 21 to 40% | viability at 10 µM [9, 25]: 41 to 60% | viability at 10 µM [9, 26]: 41 to 60% | viability at 10 µM [9, 27]: 0 to 20% | viability at 10 µM [9, 28]: 21 to 40%

CCN(CC)CCCOc1cc2nccc(Oc3ccc(NS(=O)(=O)c4ccccc4C(F)(F)F)cc3F)c2cc1OC [Example 101, N-{4-[7-(3-Diethylamino-propoxy)-6-methoxy-quinolin-4-yloxy]-3-fluoro-phenyl}-2-trifluoromethyl-benzenesulfonamide]
IC50 [1]: ≤ 5 µM | IC50 [2, 11]: 12.5 to 50 µM | IC50 [2, 12]: 12.5 to 50 µM | IC50 [3, 13]: ≤ 5 µM | IC50 [3, 14]: 5 to 50 µM | IC50 [3, 15]: ≤ 5 µM | IC50 [3, 16]: 5 to 50 µM | IC50 [4]: ≤ 12.5 µM | IC50 [5]: 12.5 to 50 µM | IC50 [6]: ≤ 12.5 µM | IC50 [7]: ≤ 12.5 µM | IC50 [8]: ≤ 12.5 µM | viability at 10 µM [9, 17]: 21 to 40% | viability at 10 µM [9, 18]: 21 to 40% | viability at 10 µM [9, 19]: 0 to 20% | viability at 10 µM [9, 20]: 0 to 20% | viability at 10 µM [9, 21]: 41 to 60% | viability at 10 µM [9, 22]: 41 to 60% | viability at 10 µM [9, 23]: 41 to 60% | viability at 10 µM [9, 24]: 21 to 40% | viability at 10 µM [9, 25]: 41 to 60% | viability at 10 µM [9, 26]: 21 to 40% | viability at 10 µM [9, 27]: 0 to 20% | viability at 10 µM [9, 28]: 0 to 20% | IC50 [10]: 10 to 25 µM
